Data on 2 substances can be found in patent publication US20160129155A1, “MUSCULOSKELETAL TISSUE FABRICATION” (University of Pittsburgh - Of the Commonwealth System of …, priority 2014, published 2016).

Data set [1] concerns engineered osteochondral constructs. Briefly: IL-1β treatment of engineered osteochondral constructs, MMP ELISA of medium. It counts as cell-based, human. The procedure: (§1) IL-1β treatment in engineered micro-osteochondral constructs. After 4 weeks of differentiation, engineered the osteochondral constructs were treated with IL-1β […], R&D) on the chondral or osseous sides only to investigate the cell/neo-tissue response to pro-inflammatory cytokines and possible communication through the osteochondral construct. The media used in this test were CM without TGF-β3 (chondral) and OM without BMP-2 (osseous) both supplemented with 5 ng/ml There were experimental groups: (1) CM/GM, (2) CM+IL1-1β/GM, (3) CM/GM+IL1-1β. The treatment lasted 7 days, with effluent medium collected and frozen at 1, 7 days for ELISA. After 7 days, the osteochondral constructs were bisected into the chondral and osseous halves and processed for gene expression analysis as described before. In addition to tissue specific gene expression, matrix metalloproteinase 1, 3, 13 were also analyzed.
Enzyme-linked immunosorbent assay (ELISA). Media was collected separately from chondral and osseous constructs, cleared of cell debris via centrifugation (1000×g), and analyzed via IL-1β (Abcam, Cambridge, Mass.), MMP-1 (R&D), MMP-3 (Abcam, Cambridge, Mass.), and MMP-13 (Abcam) ELISAs according to the manufacturers' instructions.
(§2) IL1β treatment on engineered osteochondral tissue. As described above, the microtissue bioreactor presented here, with its two separate medium flow systems and biphasic construct compartments, has the capability for targeted treatment of one (or both) tissue construct(s) with soluble factors. Osseous and chondral components were separately treated with the pro-inflammatory cytokine IL-1β (10 ng/ml) for 7 days (control conditions consisted of untreated osteochondral constructs), and the responses of each of the two components were separately analyzed. Media samples were collected from chondral and osseous components streams at day 1 and 7, and, after day 7, the osteochondral constructs were separated into osseous and chondral components, and each was separately analyzed for gene expression of catabolic genes (MMP-1, MMP-3, MMP-13) and either cartilage markers (Sox9, Col2, aggrecan) (FIG. 20) or bone markers (RUNX2, osteocalcin, BSPII) (FIG. 21). Media samples from the chondral and osseous components stream collected at days 1 and 7 were analyzed via MMP-1, MMP-3, and MMP-13 ELISAs (FIG. 22).
A general note: ELISA stands for enzyme-linked immunosorbent assay.

Data set [2] has the same test system. Description: IL-1β treatment of engineered osteochondral constructs, real time PCR. Format: cell-based, human. The following applies: 10 ng/ml, 7 days. The procedure:
Real time PCR. Chondral and osseous constructs were collected separately. To avoid the potential contamination, the bonded margin of each construct was cut away using a razor blade. Total RNA was extracted using Trizol (Invitrogen) following the standard protocol and purified with the RNeasy Plus mini kit (Qiagen, Hilden, Germany). SuperScript III kit (Invitrogen) was utilized with random hexamer primers to complete the reverse transcription. Real-time RT-PCR was performed using the StepOnePlus thermocycler (Applied Biosystems, Foster City, Calif.) and SYBR Green Reaction Mix (Applied Biosystems). Sox 9, Aggrecan (ACN) and collagen type II (COL2A1), RunX2, Osteocalcin (OCN), Bone sialoprotein (BSP II) expression were analyzed. Monolayers of hBMSCs cultured in GM on 2D tissue culture plastic were used as negative controls. Transcript level of 18S rRNA was used as endogenous control: […], Gene expression folder changes were calculated using the Comparative CT (ΔΔCT) method.
as §1, §2
In general terms: In qPCR the cycle at which signal appears reflects the starting amount.

The subject of data set [3] is hASCs. Format: cell-based. The following applies: 28 days. The protocol: P3 hASCs were pelleted by centrifugation and the supernatant was completely removed. The polymer solution prepared above was used to re-suspend hASCs at 4×10^6cells/ml, and then the cell-polymer solution was immediately poured into the basement plate of the PSL device for printing with different 3D models as the template.
(§3) The fabricated constructs were detached from the platform and washed 3 times to remove uncured polymer solution. The constructs were cultured in control medium (CM, DMEM with 1% L-alanyl-L-glutamine, 55 μM sodium pyruvate, 1× antibiotic-antimycotic, and 1% Insulin-Transferrin-Selenium (ITS)) or chondrogenic medium (CGM, CM supplemented with 10 ng/ml transforming growth factor-β3 (TGF-β3), 100 nM dexamethasone, 50 μM L-ascorbic acid 2-phosphate, and 23 μM L-proline) up to 28 days, which were designated as Control or TGF-β3 group, respectively.
At various time points post-fabrication, cell viability was assessed with the Live/Dead Viability/Cytotoxicity kit as examined by epifluorescence microscopy. The percentage of live cells was calculated as the number of green-staining cells divided by the total number of cells (green & red staining cells).

The test system of data set [4] is hASCs. Description: Chondrogenesis of hASCs in VL-PSL constructs (RT-PCR, hydroxyproline, histology, IHC). It counts as cell-based, human. The procedure: as §3
Total RNA of the cells within the constructs was isolated using TRIZOL reagent and purified. Reverse transcription reactions were performed. Real-time PCR was performed with a thermocycler. All sample values were normalized to 18S rRNA using the 2^−ΔΔCt method.
Total collagen content deposited within the constructs was determined by measuring hydroxylproline levels. The constructs (5 mm diameter and 2 mm thickness) were homogenized in water by grinding and hydrolyzed using the same volume of 12N HCl at 120° C. for 3 hours. Hydroxyproline content in constructs was quantitated using a Hydroxyproline Colorimetric Assay Kit.
After 28 days culture, constructs were removed from the incubator, washed twice, and fixed in buffered paraformaldehyde (4%) for 1 day at room temperature. After washed with PBS for 3 times, they were then cryosectioned using a cryostat at 8 μm thickness. For assessment of glycosaminoglycan deposition, the slides were stained with either Alcian Blue or Safranin-O/Fast Green following standard protocols.
Enzymatic antigen retrieval was performed using chondroitinase/hyaluronidase (1 mg/ml and 5 mg/ml) at 37° C. for 30 min, and was suppressed with 1% horse serum in PBS for 45 min. After blocking endogenous peroxidase (3% H2O2 in methanol for 10 min) and nonspecific binding (1% horse serum), slices were incubated with primary antibodies against collage type II overnight at 4° C. After washing, biotinylated secondary antibodies were applied for 30 min. Staining was developed by treating samples with horseradish peroxidase (HRP)-conjugated streptavidin/NovaRED™ peroxidase substrate.

Setting [5] is: IL-1β treatment of osseous component.
The mark [6] stands for this setting: IL-1β treatment of chondral construct.
Setting [7] is: day 28, TGF-β3 group versus control group.

What is called cell viability is a read-out of living cells in per cent, often relative to untreated cells. Higher therefore signals better survival.

Where only a bound is given, the exact number is not on record here.

Regarding interleukin-1β [IL-1β], the “osseous construct MMP secretion response” value in data set [1] (IL-1β treatment of chondral component, days 1 and 7) is given as “quick yet increased further over time”. Besides, in data set [1] (setting [5]), the “chondral MMP-1, MMP-3 and MMP-13 secretion” value is on record as “increases”; the “chondral MMP-1 response time” value is on record as 7 days; the “chondral MMP-13 response time” value was no more than 1 days. In addition, in data set [2] (setting [6]), the “MMPs production in the osseous construct” value was “increases”; the “osseous construct expression of osteocalcin and BSPII” value is “decreases”. For the same substance, the “chondral construct expression of Sox9, Col2 and aggrecan” value in data set [2] (IL-1β treatment of chondral constructs) is reported as “decreases”. Moreover, the “chondral construct expression of MMP-1, MMP-3 and MMP-13” value in data set [2] (setting [5]) is “increased substantially”. For the same substance, the “chondral construct expression of Sox9, Col2 and aggrecan” value in data set [2] (IL-1β treatment of osseous constructs) is listed as “decreased”.

As to transforming growth factor-β3 [TGF-β3], the cell viability in the data set on hASCs [3] (chondrogenic medium supplemented with TGF-β3) came to 77%. Also, the “cell proliferation by MTS assay” value in the data set with hASCs [3] (chondrogenic medium with TGF-β3) is on record as “promoted cell proliferation”. In the data set with hASCs [4] (day 28, TGF-β3 group), the “Alcian Blue and Safranin O staining (GAG)” value is “dense, strong staining”; the “IHC for collagen type II” value was “positive staining”; the hydroxyproline level is given as 21.16±7.15 μg/construct. In addition, in the data set with hASCs [4] (setting [7]), the Runx2 expression entry is “higher in the control group”; the “expression of Sox 9, aggrecan and collagen II” value is recorded as “significantly higher”.
